Results on 6 molecules are retold here after patent US20240248074A1, “METHOD AND SYSTEM FOR SINGLE-CELL BIOPHYSICAL PROFILING USING A MICROFLUIDIC DEVICE” (NANYANG TECHNOLOGICAL UNIVERSITY, priority 2021, published 2024).

Entries after “also recorded” stand apart in the source; their conditions may differ. Where two headings read alike, the source gives them in different places.

The subject of test [1] is primary neutrophils. The experiment in a line: Multi-parametric biophysical (impedance) profiling of primary neutrophils treated with stimuli. In kind it is cell-based, human. To be noted: for cell size: 2 hr treatment vs control (FIG. 13B, E); for correlation between CD66b expression and cell size: Example 5 (FIG. 20); for electrical size (cell size): 2 hr treatment (FIG. 17D); for nucleus opacity (|Z|12 MHz/|Z|0.3 MHz): 2 hr treatment (FIG. 17G); for electrical deformability index: 2 hr treatment vs untreated neutrophils (FIG. 17F); for UMAP projection of biophysical features (shift vs control): Example 6, 10 biophysical features (FIG. 21).

Test [2] concerns primary neutrophils. The experiment in a line: Flow cytometric analysis of neutrophil activation markers and F-actin. To be noted: for CD11 b expression / CD66b expression: Example 4, 2 hr treatment (FIG. 14). In kind it is cell-based, human. For orientation: Flow cytometry measures light scatter and fluorescence of single cells or particles in a stream.
Protocol: The staining protocols for leukocyte identification are similar as previously described^50. The samples were stained for 30 min at 4° C. with FITC-labelled anti-human CD11 b and allophycocyanin (APC)-labelled anti-human CD66b antibodies. Non-specific antibody binding was examined using corresponding isotype negative control antibodies. The cells were washed once prior to flow cytometry analysis. All antibodies were purchased from eBioscience (1:20 dilution) and analyzed using a BD LSR Fortessa flow cytometer (BD Biosciences).
The test system of a further test is HL-60. The test is described as follows: Immunostaining and flow cytometric analysis of F-actin in HL-60. In kind it is cell-based. The note with it: treated HL-60 vs control (FIG. 10 B, D, E). The source says: The effect of cytoskeleton disruptors, such as cytochalasin D (CytoD) and latrunculin B (LatB), on HL-60 deformability, was studied (FIG. 10 A-E).
Test [3] relates to HL-60 (leukemia cell lines). In kind it is cell-based.
The test system of test [4] is primary neutrophils. The experiment in a line: Annexin V/Propidium iodide (PI) live-dead staining, flow cytometry. In kind it is cell-based, human. To be noted: Example 5; STS 1 μM, 2 hr (FIG. 18).
The mark [5] stands for this setting: HL-60 treated with cytoskeleton disruptor vs DMSO treated control (FIG. 10).

Turning to `CCCCCCCCCCCCCC(=O)O[C@@H]1[C@@H](C)[C@@]2(O)[C@@H](C=C(CO)C[C@]3(O)C(=O)C(C)=C[C@@H]23)[C@@H]2C(C)(C)[C@]12OC(C)=O` [PMA, Phorbol Myristate Acetate], in the test on primary neutrophils [1] (Example 4), the cell size entry is reported as “larger than control”. Besides, the “impedance profile (cell size / opacity clusters)” value in the test on primary neutrophils [1] (Example 4, PMA 200 nM, 2 hr) was “two distinct clusters”. In the test on primary neutrophils [1], the “correlation between CD66b expression and cell size” value was “increase in CD66b expression with cell size”; the “UMAP projection of biophysical features (shift vs control)” value (“UMAP projection … (shift vs control)” for short) is reported as “strong biophysical changes”. Moreover, in the test with primary neutrophils [1] (Example 5), the “electrical size (cell size)” value was “largest increase in cell size”, the “nucleus opacity (|Z|12 MHz/|Z|0.3 MHz)” value is recorded as “significant decrease in nucleus opacities” and the electrical deformability index result is given as “more deformable”. The “impedance profile (cell clusters / populations)” value in the test with primary neutrophils [1] (Example 5, PMA 200 nM, 2 hr (FIG. 19)) was “two distinct cell clusters; also recorded: two distinct cell populations of different size and deformability”. In addition, in the test with primary neutrophils [2], the CD11 b expression entry is reported as “elevated expressions” and the CD66b expression entry was “elevated expressions”.

Regarding `CSCC[C@H](NC=O)C(=O)N[C@@H](CC(C)C)C(=O)N[C@@H](Cc1ccccc1)C(=O)O` [fMLP, N-Formylmethionyl-leucyl-phenylalanine], the cell size entry in the test with primary neutrophils [1] (Example 4) is listed as “larger than control”. In addition, in the test with primary neutrophils [1] (Example 4, 2 hr, fMLP 1 μM, glucose 30 mM, PMA 200 nM, vs untreated control (FIG. 13D)), the “electrical deformability (deformability index)” value is on record as “stiffer cell properties”. Also, in the test with primary neutrophils [1], the “correlation between CD66b expression and cell size” value is listed as “increase in CD66b expression with cell size”; the “UMAP projection … (shift vs control)” value was “smaller shifts in different directions”. Moreover, in the test on primary neutrophils [1] (Example 5), the “electrical size (cell size)” value is listed as “increased” and the electrical deformability index result was “negligible changes”. In the test with primary neutrophils [2], the CD11 b expression entry was “elevated expressions” and the CD66b expression result is recorded as “elevated expressions”. Further, the “F-actin expression (MFI)” value in the test on primary neutrophils [2] (Example 5, 2 hr treatment (FIG. 17C)) is given as “highest F-actin expression; also recorded: increased F-actin expression”.

Take `C/C1=C/C(=O)O[C@@H]2C[C@@H](CC[C@H](C)/C=C\CC1)O[C@@](O)([C@@H]1CSC(=O)N1)C2` [latrunculin B]: in the test on HL-60, the F-actin expression result is listed as “decreased F-actin expression”. In addition, the electrical deformability index entry in test [3] (setting [5]) is listed as “higher electrical deformability index”.

In the case of `C=C1[C@@H](C)[C@H]2[C@H](Cc3ccccc3)NC(=O)[C@]23[C@H](OC(C)=O)/C=C/[C@@](C)(O)C(=O)[C@@H](C)C/C=C/[C@H]3[C@@H]1O` [cytochalasin D], the F-actin expression result with HL-60 is reported as “decreased F-actin expression”. The electrical deformability index result in test [3] (setting [5]) is given as “higher electrical deformability index”.

With paraformaldehyde [PFA], in test [3], the cell size result is “smaller cell size” and the electrical deformability index entry was “lower than untreated control”.

Consider `CN[C@@H]1C[C@H]2O[C@@](C)([C@@H]1OC)n1c3ccccc3c3c4c(c5c6ccccc6n2c5c31)C(=O)NC4` [STS, Staurosporine], for which the “nucleus opacity (|Z|12 MHz/|Z|0.3 MHz)” value with primary neutrophils [1] (Example 5) is “higher nucleus opacity”. Besides, the membrane opacity result with primary neutrophils [1] (Example 5, 2 hr treatment vs control (FIG. 17E)) was “significant increase in membrane opacity”. Moreover, the “UMAP projection … (shift vs control)” value with primary neutrophils [1] is “strong biophysical changes”. Further, the “Annexin V / PI expression” value with primary neutrophils [4] was “increased Annexin V expression”.
